# Measured values taken from patent US6911477B2, “Muscarinic receptor agonists” (Pfizer Inc., priority 1996, dated 2005).
# Structures can show the parent of a compound that is named as a salt.
row,Structure (SMILES),melting point
1,"c1ccc(N=C(NC(=Nc2ccccc2)N2CCCCCC2)c2ccccc2)cc1 (as salt: hydroiodid) [Example 17, N-(azepan-1-yl-phenylimino-methyl)-N′-phenyl-benzamidine]",228 to 229 °C
2,"Cc1ccccc1C(=Nc1ccccc1)NC(=Nc1ccc(F)cc1)N1CCC(O)CC1 (as salt: hydrochloride) [Example 29, N-[(4-fluoro-phenylimino)-(4-hydroxy-piperidin-1-yl)-methyl]-2-methyl-N′-phenyl-benzamidine]",224 to 225 °C
3,"Cc1ccccc1C(=NC(=Nc1ccccc1F)N1CCC(O)CC1)Nc1ccc(F)cc1 (as salt: hydrochloride) [Example 36, N-(4-fluoro-phenyl)-N′-[(2-fluoro-phenylimino)-(4-hydroxy-piperidin-1-yl)-methyl]-2-methyl-benzamidine]",174 to 175 °C
4,"Cc1ccccc1C(=Nc1ccc(F)cc1)NC(=NC1CC1)C1(C)CCCCC1 (as salt: hydrochloride) [Example 106, N-[cyclopropylimino-(1-methyl-cyclohexyl)-methyl]-N′-(4-fluoro-phenyl)-2-methyl-benzamidine]",205 to 207 °C
5,"COc1ccc(N=C(NC(=Nc2ccccc2)N2CCCCCC2)c2c(C)cccc2C)cc1 (as salt: hydrochloride) [Example 68, N-(azepan-1-yl-phenylimino-methyl)-N′-(4-methoxy-phenyl)-2,6-dimethyl-benzamidine]",228 to 230 °C (dec.)
6,"CC1CCCCN1C(=Nc1ccccc1)NC(=Nc1ccc(F)cc1)c1ccccc1Cl (stereo not shown) (as salt: hydrochloride) [Example 37, N-[(2-chloro-phenyl)-(4-fluoro-phenylimino)-methyl]2-methyl-N′-phenyl-piperidine-1-carboxamidine]",145 to 147 °C
7,"CC1CCCN(C(=Nc2ccccc2)NC(=Nc2ccccc2)c2ccccc2)C1 (stereo not shown) (as salt: hydroiodid) [Example 23, N-[(3-methyl-piperidin-1-yl)-phenylimino-methyl]-N′-phenyl-benzamidine]",179 to 182 °C (dec.)
8,"COc1ccc(N=C(NC(=Nc2ccccc2)N2CCCCCC2)c2ccccc2)cc1 (as salt: hydroiodid) [Example 18, N-(azepan-1-yl-phenylimino-methyl)-N′-(4-methoxy-phenyl)-benzamidine]",241 to 243 °C
9,"c1ccc(N=C(NC(=Nc2ccccc2)N2CCCCCCC2)c2ccccc2)cc1 (as salt: hydroiodid) [Example 22, N-(azocan-1-yl-phenylimino-methyl)-N′-phenyl-benzamidine]",252 to 253 °C (dec.)
10,"Cc1cccc(C)c1C(=Nc1ccc(F)cc1)NC(=NC1CCC1)N1CCCCC1C (stereo not shown) (as salt: hydrochloride) [Example 102, N-[cyclobutylimino-(2-methyl-piperidin-1-yl)-methyl]-N′-(4-fluoro-phenyl)-2,6-dimethyl-benzamidine]",136 to 138 °C
11,"Fc1ccc(NC(=CC(=NC2CC2)N2CCCCO2)c2ccccc2)cc1 (as salt: nitrate) [Example 110, (3-cyclopropylimino-3-[1,2]oxazinan-2-yl-1-phenyl-propenyl)-(4-fluoro-phenyl)-amine]",82 to 84 °C
12,"Cc1cccc(C)c1C(=NC(=NC(C)C)N1CCCCC1C)Nc1ccc(F)cc1 (stereo not shown) (as salt: hydrochloride) [Example 99, N-(4-fluoro-phenyl)-N′-[isopropylimino-(2-methyl-piperidin-1-yl)-methyl]-2,6-dimethyl-benzamidine]",208 to 210 °C (dec.)
13,"Cc1cccc(C)c1C(=NC(=Nc1cccnc1)N1CCCCC1C)Nc1ccc(F)cc1 (stereo not shown) (as salt: hydrochloride) [Example 86, N-(4-fluoro-phenyl)-2,6-dimethyl-N′-[(2-methyl-piperidin-1-yl)-(pyridin-3-ylimino)-methyl]-benzamidine]",207 to 210 °C
14,"Cc1cccc(C)c1C(=NC(=Nc1ccccc1)N1CCOCC1)Nc1ccc(F)cc1 (as salt: hydrochloride) [Example 76, N-(4-fluoro-phenyl)-2,6-dimethyl-N′-(morpholin-4-yl-phenylimino-methyl)-benzamidine]",249 to 251 °C (dec.)
15,"Cc1cccc(C)c1C(=Nc1ccc(F)cc1)NC(=Nc1ccccc1)N1C(C)CCCC1C (stereo not shown) (as salt: hydrochloride) [Example 48, N-[(2,6-dimethyl-piperidin-1-yl)-phenylimino-methyl]-N′-(4-fluoro-phenyl)-2,6-dimethyl-benzamidine]",172 to 174 °C (dec.)
16,"Cc1cccc(C)c1C(=NC(=Nc1ccccc1)N1CCC(O)CC1C)Nc1ccc(F)cc1 (stereo not shown) (as salt: hydrochloride) [Example 82, N-(4-fluoro-phenyl)-N′-[(4-hydroxy-2-methyl-piperidin-1-yl)-phenylimino-methyl]-2,6-dimethyl-benzamidine]",169 to 172 °C
17,"c1ccc(N=C(N=C(Nc2ccccc2)c2ccccc2)N2CCCC2)cc1 (as salt: hydrochloride) [Example 1, N-Phenyl-N′-(phenylimino-pyrrolidin-1-yl-methyl)-benzamidine]",246 to 247 °C

row,Structure (SMILES),melting point
1,"Cc1ccccc1C(=NC(=Nc1ccccc1)N1CCC(=O)CC1C)Nc1ccc(F)cc1 (stereo not shown) (as salt: hydrochloride) [Example 69, N-(4-fluoro-phenyl)-2-methyl-N′-[(2-methyl-4-oxo-piperidin-1-yl)-phenylimino-methyl]-benzamidine]",> 143 °C
2,"Cc1cccc(C)c1C(=NC(=Nc1ccc(F)cc1)N1CCCCO1)Nc1ccc(F)cc1 (as salt: hydrochloride) [Example 50, N-(4-fluoro-phenyl)-N′-[(4-fluoro-phenylimino)-[1,2]oxazinan-2-yl-methyl]-2,6-dimethyl-benzamidine]",213 to 214 °C
3,"C(=C(Nc1ccccc1)c1ccccc1)C(=Nc1ccccc1)N1CCCC1 (as salt: nitrate) [Example 87, (3-phenylimino-3-pyrrolidin-1-yl-1-phenyl-propenyl)-phenylamine]",184 to 186 °C
4,"Cc1cccc(C)c1C(=NC(=Nc1ccccc1)N1CCC(=O)CC1)Nc1ccc(F)cc1 (as salt: hydrochloride) [Example 63, N-(4-fluoro-phenyl)-2,6-dimethyl-N′-[(4-oxo-piperidin-1-yl)-phenylimino-methyl]-benzamidine]",228 to 229 °C (dec.)
5,"Cc1cccc(C)c1C(=Nc1ccc(F)cc1)NC(=Nc1ccccc1)N1CCCCC1C (stereo not shown) (as salt: hydrochloride) [Example 35, N-[(2,6-dimethyl-phenyl)-(4-fluoro-phenylimino)-methyl]-2-methyl-N′-phenyl-piperidine-1-carboxamidine]",181 to 183 °C
6,"Cc1ccccc1C(=NC(=Nc1ccccc1)C1(C)CCCCC1)Nc1ccc(F)cc1 [Example 11, N-(4-Fluoro-phenyl)-2-methyl-N′-[(1-methyl-cyclohexyl)-phenylimino-methyl]-benzamidine]",210 to 211 °C
7,"Cc1ccccc1C(=CC(=NC1CCCCC1)N1CCCCC1C)Nc1ccc(F)cc1 (stereo not shown) (as salt: hydrochloride) [Example 100, [3-cyclohexylimino-3-(2-methyl-piperidin-1-yl)-1-o-tolyl-propenyl]-(4-fluoro-phenyl)-amine]",> 125 °C (dec.)
8,"Cc1ccccc1C(=NC(=Nc1ccccc1)N1CCC(O)CC1)Nc1ccc(F)cc1 (as salt: hydrochloride) [Example 26, N-(4-fluoro-phenyl)-N′-[(4-hydroxy-piperidin-1-yl)-phenylimino-methyl]-2-methyl-benzamidine]",228 to 230 °C (dec.)
9,"Cc1cccc(C)c1C(=NC(=Nc1ccccc1)N1CCC(=O)CC1C)Nc1ccc(F)cc1 (stereo not shown) (as salt: hydrochloride) [Example 65, N-(4-fluoro-phenyl)-2,6-dimethyl-N′-[(2-methyl-4-oxo-piperidin-1-yl)-phenylimino-methyl]-benzamidine]",215 to 217 °C
10,"CC1CCCCN1C(=Nc1ccccc1)NC(=Nc1ccccc1)c1ccccc1 (stereo not shown) (as salt: hydroiodid) [Example 3, N-[(2-Methyl-piperidin-1-yl)-phenylimino-methyl]-N′-phenyl-benzamidine]",219 to 221 °C (dec.)
11,"Fc1ccccc1N=C(NC(=Nc1ccccc1)c1ccccc1)N1CCCC1 (as salt: hydrochloride) [Example 27, N-[(2-fluoro-phenylimino)-pyrrolidin-1-yl-methyl]-N′-phenyl-benzamidine]",254 to 255 °C
12,"Cc1cccc(C)c1C(=Nc1ccc(F)cc1)NC(=Nc1ccc(N)cc1)N1CCCCC1C (stereo not shown) (as salt: hydrochloride) [Example 64, N-[(4-amino-phenylimino)-(2-methyl-piperidin-1-yl)-methyl]-N′-(4-fluoro-phenyl)-2,6-dimethyl-benzamidine]",179 to 181 °C
13,"Fc1ccccc1C(=Nc1ccccc1)NC(=Nc1ccccc1)N1CCCC1 (as salt: nitrate) [Example 39, N-[(2-fluoro-phenyl)-phenylimino-methyl]-N′-phenyl-pyrrolidine-1-carboxamidine]",194 to 196 °C
14,"Clc1ccccc1C(=NC(=Nc1ccccc1)N1CCCC1)Nc1ccccc1 (as salt: hydrochloride) [Example 30, 2-chloro-N-phenyl-N′-(phenylimino-pyrrolidin-1-yl-methyl)-benzamidine]",228 to 230 °C
15,"COc1ccc(NC(=NC(=Nc2ccccc2)N2CCCC2)c2ccccc2)cc1 (as salt: hydrochloride) [Example 15, N-(4-methoxy-phenyl)-N′-(phenylimino-pyrrolidin-1-yl-methyl)-benzamidine]",244 to 245 °C
16,"Cc1cccc(C)c1C(=Nc1ccc(F)cc1)NC(=NC1CC1)N1CCCCC1C (stereo not shown) (as salt: hydrochloride) [Example 103, N-[cyclopropylimino-(2-methyl-piperidin-1-yl)-methyl]-N′-(4-fluoro-phenyl)-2,6-dimethyl-benzamidine]",219 to 220 °C
17,"CC1CCCCN1C(N=C(Nc1ccc(F)cc1)c1c(F)cccc1F)=Nc1ccc(F)cc1 (stereo not shown) (as salt: nitrate) [Example 51, 2,6-difluoro-N-(4-fluoro-phenyl)-N′-[(4-fluoro-phenylimino)-(2-methyl-piperidin-1-yl)-methyl]-benzamidine]",171 to 173 °C
